Molecules are shown by their SMILES. Where a SMILES comes first, the peptide text is derived from it.

Usually IC50 stands for the concentration that gives 50% inhibition.

The assay has as its target guinea pig brain membranes. Briefly: Binding test with guinea pig brain membranes. Conditions: tested on guinea pig brain membranes; read-out: IC50 = 100 μM. As to the method:
Binding Assay Alternative Protocol by Skatron
The experimental conditions are identical for all the binding assay protocols except for the fact that: i) the volume R in operation is 200 μl; ii) the test carried out in 96-well Falcon plates iii) the reaction is directly stopped by filtration on filterMat (ref. 11734) Skatron and the radioactivity associated with the filtrate is evaluated: either directly with a γ counter for the peptides labelled with […]: or with a […] in the presence of 5 ml of scintillating liquid.
Membrane Preparations of Guinea Pig Brains and Binding Assay
The guinea pigs are sacrificed by rupturing their cervical vertibrae, decapitated, and the brains are removed very rapidly and placed into a sucrose-Tris-HCl buffer (0.32 M sucrose 5 mM, Tris-HCl, 0.1 g/l bacitracin) at 4° C. (about 10 ml of buffer per brain). The brains are then homogenized using a Potter device and the homogenate is placed in incubation for 30 minutes at 37° C. under agitation, then centrifuged twice for 35 minutes at 100,000×g at 4° C. The protein content of the membrane preparations is evaluated according to the Bradford method (BioRad, according to the manufacturers protocol).
Bonding of Labelled Agonists to the Guinea Pig Brain Membrane Preparation The membranes are placed in a buffer (50 mM of Tris-HCl, 5 mM of MgCl2 and 0.1 g/l of bacitracin) at the desired protein concentration (iodized CCK bond, 0.1 mg of protein/ml; iodized gastrin bond: 0.5 mg of proteins/ml). They are then incubated in the presence of a labelled ligand in a total volume of 500 μl (about 10 pM for the iodized CCK8, 20 pM for the iodized gastrin13), 50-80 minutes at 25° C., and in the presence or absence of cold agonists. The reaction is stopped with 3 ml of additional BSA buffer (20 g/l) at 4° C., the tubes are centrifuged at 10,000×g, the supernatant is drawn off and the radioactivity associated with the precipitate is evaluated with a γ counter.
With `CC(C)C[C@H](NC(=O)[C@@H]1CCCN1C(=O)[C@H](CC(C)C)NC(=O)[C@H](CCC(N)=O)NC(=O)[C@@H](N)Cc1ccccc1)C(=O)N[C@@H](CC(=O)O)C(=O)N[C@@H](CCCCN)C(=O)NCC(=O)N[C@@H](CC(N)=O)C(N)=O` [Example 29, H-FQLPLDKGN-NH2] (H-FQLPLDKGN-NH2), the half-inhibitory concentration (IC50) was found to be 10 nM.
For `CC[C@H](C)[C@H](NC(=O)[C@H](Cc1ccccc1)NC(=O)[C@H](C)NC(=O)[C@H](CCSC)NC(=O)[C@@H](NC(=O)[C@H](CCC(=O)O)NC(=O)[C@@H]1CCCN1C(=O)CNC(=O)[C@H](CCCCN)NC(=O)[C@@H](N)CCSC)C(C)C)C(=O)N[C@@H](CCC(=O)O)C(=O)N[C@@H](CCC(N)=O)C(N)=O` [Example 40, H-MKGPEVMAFIEQ-NH2] (H-MKGPEVMAFIEQ-NH2), the IC50 worked out at 130 nM.
Then `CC(C)C[C@H](NC(=O)[C@H](CO)NC(=O)[C@@H]1CCCN1C(=O)[C@@H](N)CC(=O)O)C(=O)N1CCC[C@H]1C(=O)N[C@H](C(=O)N[C@@H](C)C(=O)N[C@@H](CO)C(=O)N[C@@H](CO)C(=O)N[C@@H](CO)C(=O)N[C@@H](CO)C(=O)N[C@@H](CO)C(=O)N[C@@H](CO)C(=O)N[C@@H](CO)C(=O)N[C@@H](CCCCN)C(=O)N[C@@H](CCCNC(=N)N)C(N)=O)C(C)C` [Example 11, H-DPSLPVASSSSSSSKR-NH2] (H-DPSLPVASSSSSSSKR-NH2), with 270 nM; and `CC[C@H](C)[C@H](NC(=O)[C@H](Cc1ccccc1)NC(=O)[C@H](CCC(=O)O)NC(=O)[C@@H]1CCCN1C(=O)[C@H](Cc1ccc(O)cc1)NC(=O)[C@H](Cc1c[nH]cn1)NC(=O)[C@H](CCC(=O)O)NC(=O)[C@@H](NC(=O)[C@@H](N)CC(C)C)C(C)C)C(N)=O` [Example 45, H-LVEHYPEFI-NH2] (H-LVEHYPEFI-NH2), with 700 nM.
The figure for `CC[C@H](C)[C@H](NC(=O)[C@H](CO)NC(=O)[C@@H](N)Cc1ccccc1)C(=O)N[C@@H](C)C(=O)N[C@H](C(=O)N[C@@H](CC(C)C)C(=O)N[C@@H](CCCNC(=N)N)C(=O)N[C@@H](CC(=O)O)C(=O)N[C@@H](Cc1ccccc1)C(=O)NCC(=O)N[C@H](C(N)=O)C(C)C)[C@@H](C)O` [Example 15, H-FSIATLRDFGV-NH2] (H-FSIATLRDFGV-NH2) is 360 nM.
Consider `CSCC[C@H](NC(=O)[C@H](C)NC(=O)[C@@H](NC(=O)[C@@H](N)CCC(=O)O)C(C)C)C(=O)N[C@@H](CC(=O)O)C(=O)N[C@@H](CC(=O)O)C(=O)N[C@@H](Cc1c[nH]cn1)C(=O)N[C@@H](CCCCN)C(=O)N[C@@H](CC(C)C)C(=O)N[C@@H](CO)C(=O)N[C@@H](CC(C)C)C(=O)N[C@@H](CC(=O)O)C(=O)N[C@@H](CCC(=O)O)C(=O)N[C@@H](CC(C)C)C(N)=O` [Example 58, H-EVAMDDHKLSLDEL-NH2] (H-EVAMDDHKLSLDEL-NH2), for which the IC50 worked out at 860 nM.
In the case of `CC(C)[C@H](NC(=O)[C@H](C)NC(=O)[C@@H](NC(=O)[C@@H](NC(=O)[C@H](C)NC(=O)[C@@H](NC(=O)[C@@H](N)CCC(N)=O)[C@@H](C)O)C(C)C)[C@@H](C)O)C(=O)N[C@@H](CCC(=O)O)C(=O)N[C@@H](CCCCN)C(=O)N1CCC[C@H]1C(=O)N[C@@H](C)C(=O)N[C@@H](CC(=O)O)C(=O)N[C@@H](CCCCN)C(N)=O` [Example 57, H-QTAVTAVEKPADK-NH2] (H-QTAVTAVEKPADK-NH2), the IC50 turned out to be 60 nM.
For `CC[C@H](C)[C@H](NC(=O)[C@H](CC(N)=O)NC(=O)[C@H](Cc1c[nH]cn1)NC(=O)[C@@H](N)CC(C)C)C(=O)N[C@@H](CC(C)C)C(=O)NCC(=O)N[C@H](C(=O)N[C@@H](CCC(=O)O)C(=O)N[C@H](C(=O)NCC(=O)NCC(=O)N1CCC[C@H]1C(=O)NCC(N)=O)[C@@H](C)O)C(C)C` [Example 33, H-LHNILGVETGGPG-NH2] (H-LHNILGVETGGPG-NH2), the IC50 was determined as 100 nM.
On to `CC[C@H](C)[C@H](NC(=O)CNC(=O)[C@H](CCCCN)NC(=O)[C@H](CO)NC(=O)[C@H](Cc1ccc(O)cc1)NC(=O)[C@@H](N)CC(=O)O)C(=O)N[C@H](C(=O)N[C@H](C(=O)N[C@H](C(=O)N[C@@H](CCCCN)C(=O)N[C@@H](CC(N)=O)C(=O)N[C@@H](CC(=O)O)C(N)=O)[C@@H](C)O)C(C)C)[C@@H](C)O` [Example 62, H-DYSKGITVTKND-NH2] (H-DYSKGITVTKND-NH2), for which the IC50 turned out to be 670 nM.
In the case of `CSCC[C@H](NC(=O)[C@@H](NC(=O)[C@H](CCC(=O)O)NC(=O)[C@H](CCC(=O)O)NC(=O)[C@H](CC(C)C)NC(=O)[C@H](CCC(N)=O)NC(=O)[C@@H](N)CC(C)C)[C@@H](C)O)C(=O)N1CCC[C@H]1C(=O)N[C@@H](CO)C(=O)N1CCC[C@H]1C(=O)N[C@@H](Cc1ccc(O)cc1)C(N)=O` [Example 14, H-LQLEETMPSPY-NH2] (H-LQLEETMPSPY-NH2), the IC50 is 860 nM.
Take `CSCC[C@H](NC(=O)[C@@H](N)Cc1ccc(O)cc1)C(=O)N[C@@H](Cc1c[nH]cn1)C(=O)NCC(=O)N[C@@H](Cc1c[nH]cn1)C(=O)N[C@@H](CCCNC(=N)N)C(=O)N[C@@H](C)C(=O)N1CCC[C@H]1C(=O)NCC(N)=O` [Example 66, H-YMHGHRAPG-NH2] (H-YMHGHRAPG-NH2): the IC50 is 2 nM.
For `CSCC[C@H](NC(=O)CNC(=O)[C@H](Cc1ccccc1)NC(=O)[C@H](CC(=O)O)NC(=O)[C@H](CCCNC(=N)N)NC(=O)[C@H](CCSC)NC(=O)[C@@H](NC(=O)[C@@H](NC(=O)[C@@H](NC(=O)[C@H](CO)NC(=O)[C@@H](N)Cc1ccccc1)C(C)C)[C@@H](C)O)[C@@H](C)O)C(N)=O` [Example 16, H-FSVTTMRDFGM-NH2] (H-FSVTTMRDFGM-NH2), the IC50 turned out to be 80 nM.
Then `CSCC[C@H](NC(=O)[C@H](CCC(N)=O)NC(=O)[C@H](CCC(=O)O)NC(=O)[C@H](CCSC)NC(=O)[C@H](CC(C)C)NC(=O)[C@@H]1CCCN1C(=O)CNC(=O)[C@@H]1CCCN1C(=O)[C@@H]1CCCN1C(=O)CNC(=O)CNC(=O)[C@@H]1CCCN1C(=O)CNC(=O)CN)C(=O)NCC(N)=O` [Example 36, H-GGPGGPPGPLMEQMG-NH2] (H-GGPGGPPGPLMEQMG-NH2), with 2900 nM; and `CSCC[C@H](NC(=O)[C@H](CCC(N)=O)NC(=O)[C@H](CC(C)C)NC(=O)[C@H](CCCCN)NC(=O)[C@@H]1CCCN1C(=O)[C@H](CC(=O)O)NC(=O)[C@H](CCC(N)=O)NC(=O)[C@@H](NC(=O)[C@@H](N)C(C)C)[C@@H](C)O)C(N)=O` [Example 8, H-VTQDPKLQM-NH2] (H-VTQDPKLQM-NH2), with 4200 nM.
Take `CC(C)C[C@H](NC(=O)[C@H](CC(N)=O)NC(=O)[C@H](CC(=O)O)NC(=O)[C@H](Cc1c[nH]c2ccccc12)NC(=O)[C@@H](NC(=O)[C@H](CC(C)C)NC(=O)[C@H](CC(=O)O)NC(=O)[C@H](CO)NC(=O)[C@H](C)NC(=O)[C@@H](N)CO)[C@@H](C)O)C(=O)N[C@@H](CCCCN)C(N)=O` [Example 34, H-SASDLTWDNLK-NH2] (H-SASDLTWDNLK-NH2): the IC50 came to 1000 nM.
The figure for `CC[C@H](C)[C@H](NC(=O)[C@@H](N)C(C)C)C(=O)N[C@@H](CCC(N)=O)C(=O)N[C@@H](Cc1ccc(O)cc1)C(=O)N[C@@H](CC(C)C)C(=O)N[C@@H](C)C(=O)N[C@@H](Cc1c[nH]cn1)C(=O)N[C@H](C(=O)N[C@@H](C)C(=O)N[C@@H](CO)C(=O)N[C@@H](CO)C(=O)N[C@@H](Cc1c[nH]cn1)C(=O)N[C@@H](CCCCN)C(N)=O)C(C)C` [Example 63, H-VIQYLAHVASSHK-NH2] (H-VIQYLAHVASSHK-NH2) is 20 nM; for `CC[C@H](C)[C@H](NC(=O)[C@@H]1CCCN1C(=O)[C@H](CCC(=O)O)NC(=O)[C@H](CC(=O)O)NC(=O)[C@@H](NC(=O)CNC(=O)[C@H](CCC(=O)O)NC(=O)[C@H](Cc1ccccc1)NC(=O)[C@H](CC(=O)O)NC(=O)[C@@H](NC(=O)[C@@H](N)CC(=O)O)C(C)C)[C@@H](C)O)C(=O)N[C@@H](Cc1ccccc1)C(N)=O` [Example 38, H-DVDFEGTDEPIF-NH2] (H-DVDFEGTDEPIF-NH2) it is 500 nM.
Then `CSCC[C@H](NC(=O)[C@H](CCC(N)=O)NC(=O)[C@H](Cc1ccccc1)NC(=O)CNC(=O)[C@H](CO)NC(=O)[C@@H](N)CC(=O)O)C(=O)N[C@@H](CC(N)=O)C(=O)N[C@@H](CCC(N)=O)C(=O)N[C@@H](CC(C)C)C(=O)N[C@@H](CCCNC(=N)N)C(N)=O` [Example 13, H-DSGFQMNQLR-NH2] (H-DSGFQMNQLR-NH2), with 90 nM.
Take `CC(C)C[C@H](NC(=O)[C@H](CCC(N)=O)NC(=O)[C@H](C)NC(=O)[C@@H](NC(=O)[C@H](CCC(=O)O)NC(=O)[C@H](CCC(=O)O)NC(=O)[C@H](CCCCN)NC(=O)[C@@H]1CCCN1C(=O)[C@@H]1CCCN1C(=O)[C@@H](N)CCC(=O)O)[C@@H](C)O)C(=O)N[C@H](C(=O)NCC(=O)N1CCC[C@H]1C(=O)N[C@@H](CCC(=O)O)C(=O)N[C@@H](C)C(N)=O)[C@@H](C)O` [Example 65, H-EPPKEETAQLTGPEA-NH2] (H-EPPKEETAQLTGPEA-NH2): the IC50 came out at 4000 nM.

Values taken from patent US20020059032A1, “Rational selection of putative peptides from identified nucleotide or peptide sequences” (priority 1999, published 2002).
